The data set can be described thus: Equilibrium aqueous solubility. In kind it is physicochemical. To be noted: physiologically relevant pH's.

Take `COc1cc2c(N3CCN(C(=O)Nc4ccc(OC(C)C)cc4)CC3)ncnc2cc1OCCCN1CCCCC1.C[C@H](O)C(=O)O` [Form 4, 4-[6-methoxy-7-(3-piperidin-1-yl-propoxy)quinazolin-4-yl]piperazine-1-carboxylic acid(4-isopropoxyphenyl)-amide (L)-lactate (I) Form 4]: the solubility in water result was “greater than 325 mg/mL”. For `COc1cc2c(N3CCN(C(=O)Nc4ccc(OC(C)C)cc4)CC3)ncnc2cc1OCCCN1CCCCC1.C[C@H](O)C(=O)O` [Form 1, 4-[6-methoxy-7-(3-piperidin-1-yl-propoxy)quinazolin-4-yl]piperazine-1-carboxylic acid(4-isopropoxyphenyl)-amide (L)-lactate (I) Form 1] the value was “greater than 450 mg/mL”.

Values taken from patent US20150133460A1 (Millennium Phamaceuticals, Inc., priority 2013, published 2015).
